This note sets out measurements from patent US10947213B1 (Merck Patent GmbH, priority 2015, dated 2021).

Counter-ions that a name gives are not always drawn.

The test deals with T1, TLR7/NFKb HEK cells (Homo sapiens, UniProt Q9NYK1).
T1 construct: expressed in transfected cells; host or cells: HEK cells (TLR7/NFKb reporter line)
T1 sequence (Q9NYK1 27-1049): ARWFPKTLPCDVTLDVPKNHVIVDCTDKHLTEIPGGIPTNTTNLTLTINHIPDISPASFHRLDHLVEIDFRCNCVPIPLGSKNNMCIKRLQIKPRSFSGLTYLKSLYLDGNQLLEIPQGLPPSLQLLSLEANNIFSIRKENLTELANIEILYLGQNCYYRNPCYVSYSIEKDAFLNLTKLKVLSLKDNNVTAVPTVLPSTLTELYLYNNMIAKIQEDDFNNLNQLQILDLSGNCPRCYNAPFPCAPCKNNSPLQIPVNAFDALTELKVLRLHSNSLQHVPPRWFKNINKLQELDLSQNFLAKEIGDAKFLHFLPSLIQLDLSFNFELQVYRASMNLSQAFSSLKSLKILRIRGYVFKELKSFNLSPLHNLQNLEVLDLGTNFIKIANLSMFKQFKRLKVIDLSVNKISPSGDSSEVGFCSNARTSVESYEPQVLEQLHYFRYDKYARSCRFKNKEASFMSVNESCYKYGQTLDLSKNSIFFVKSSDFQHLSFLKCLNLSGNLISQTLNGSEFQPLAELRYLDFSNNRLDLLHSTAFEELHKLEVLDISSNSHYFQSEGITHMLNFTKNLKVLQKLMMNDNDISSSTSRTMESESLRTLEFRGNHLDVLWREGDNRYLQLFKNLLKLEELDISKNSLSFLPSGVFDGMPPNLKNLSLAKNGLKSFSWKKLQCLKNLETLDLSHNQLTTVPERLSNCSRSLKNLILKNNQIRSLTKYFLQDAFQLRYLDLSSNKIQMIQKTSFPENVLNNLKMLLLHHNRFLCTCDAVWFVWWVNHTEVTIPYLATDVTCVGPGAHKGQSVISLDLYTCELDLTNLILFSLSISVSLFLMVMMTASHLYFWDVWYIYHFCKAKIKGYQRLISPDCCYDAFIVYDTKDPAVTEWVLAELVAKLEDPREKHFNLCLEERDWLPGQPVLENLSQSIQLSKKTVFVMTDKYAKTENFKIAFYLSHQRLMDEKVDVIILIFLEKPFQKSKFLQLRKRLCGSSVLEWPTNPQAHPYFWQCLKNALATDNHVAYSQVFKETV
Briefly: HEK Cell Assay (TLR7/NFKb reporter, Steady-Glo luciferase readout). The format is cell-based. The note with it: 30 min compound preincubation, then R*48 agonist for 5 hours, read-out: Potency. On the procedure:
Example 142: HEK Cell Assay
Into 384 CulturePlates (Corning 3707) was placed 5000 c/w of TLR7/NFKb HEK cells in 30 uL DMEM without Phenil red (gibco #31053) and 10% i.a. FCS and 2 mM L-ZGLutamin. The cells were incubated for 24 h at 37° C., 10% carbon dioxide and 90% relative humidity. 3 uL of controls, standards, and compounds were dispensed into wells, incubated for 30 min then 3 uL of R*48 agonist in 20 mM Hepes was added. After incubation for 5 hours, they were allowed to stand at room temperature for 15 min. To this was added 10 uL of Steady-Glo substrate reagent and shake assay plate for 5 min at 1500 rpm. The assay plate was allowed to sit for 30 min at room temperature and then the plate was read on EnVision.
For the compound `C[C@H]1C[C@@H](NC(=O)CC2CNC2)CN(c2ccc(C(F)F)c3nccnc23)C1` [Compound 324, 2-(azetidin-3-yl)-N-[(3R,5S)-1-[8-(difluoromethyl)quinoxalin-5-yl]-5-methylpiperidin-3-yl]acetamide], the IC50 fell in the range of 1000 to 10000 nM.

Consider `C[C@H]1C[C@@H](NC(=O)CN2CCN(C)CC2)CN(c2ccc(C#N)c3nccnc23)C1` [Compound 109, N-[(3R,5S)-1-(8-cyanoquinoxalin-5-yl)-5-methylpiperidin-3-yl]-2-(4-methylpiperazin-1-yl)acetamide], for which the IC50 was less than 1000 nM.

As for `CCN(CC)CCNCC1CCN(c2ccnc3ccc(OC)cc23)CC1` [Compound 382, N,N-Diethyl-N′-[1-(6-methoxy-quinolin-4-yl)-piperidin-4-ylmethyl]-ethane-1,2-diamine], the IC50 lay in the range of 1000 to 10000 nM.

`N#Cc1ccc(N2CC(N)CC(C(F)(F)F)C2)c2cccnc12` (single isomer, unassigned) [Compound 72]: the IC50 was less than 1000 nM.

With `C[C@H]1C[C@@H](NC(=O)C2(C)COC2)CN(c2ccc(C#N)c3nccnc23)C1` [Compound 36, N-((3R,5S)-1-(8-cyanoquinoxalin-5-yl)-5-methylpiperidin-3-yl)-3-methyloxetane-3-carboxamide], the IC50 fell in the range of 1000 to 10000 nM.

`C[C@H]1C[C@@H](NC(=O)C(C)(C)C2CCN(C)CC2)CN(c2ccc(C(F)(F)F)c3nccnc23)C1` [Compound 355, 2-methyl-N-[(3R,5S)-5-methyl-1-[8-(trifluoromethyl)quinoxalin-5-yl]piperidin-3-yl]-2-(1-methylpiperidin-4-yl)propanamide]: the IC50 is less than 1000 nM.

In the case of `CN1CCC(CC(=O)NC2CN(c3ccc(C#N)c4nccnc34)CC(F)(F)C2)CC1` (single isomer, unassigned) [Compound 523], the IC50 is less than 1000 nM.

As for `CCN(CC)CCNCC1CCN(c2ccnc3cc(C)ccc23)CC1` [Compound 389, N,N-Diethyl-N′-[1-(7-methyl-quinolin-4-yl)-piperidin-4-ylmethyl]-ethane-1,2-diamine], the IC50 lay in the range of 1000 to 10000 nM.

For the compound `C[C@H]1C[C@@H](NC(=O)CNS(C)(=O)=O)CN(c2ccnc3nccnc23)C1` [Compound 141, 2-methanesulfonamido-N-[(3R,5S)-5-methyl-1-[pyrido[2,3-b]pyrazin-8-yl]piperidin-3-yl]acetamide], the IC50 is greater than 10000 nM.

On to `CC(C)[C@H](O)C(=O)N[C@@H]1C[C@H](C)CN(c2ccc(C(F)F)c3ncccc23)C1` [Compound 204, (2S)—N-[(3R,5S)-1-[8-(difluoromethyl)quinolin-5-yl]-5-methylpiperidin-3-yl]-2-hydroxy-3-methylbutanamide], for which the IC50 was less than 1000 nM.

For the compound `C[C@H]1C[C@@H](NC(=O)CC2(N)CCCCC2)CN(c2ccc(C(F)(F)F)c3ncccc23)C1` [Compound 483, 2-(1-Amino-cyclohexyl)-N-[(3R,5S)-5-methyl-1-(8-trifluoromethyl-quinolin-5-yl)-piperidin-3-yl]-acetamide], the IC50 is less than 1000 nM.

In the case of `C[C@H]1C[C@@H](NC(=O)CN2CC(N)C2)CN(c2ccc(C(F)(F)F)c3ncccc23)C1` [Compound 280, 2-(3-aminoazetidin-1-yl)-N-[(3R,5S)-5-methyl-1-[8-(trifluoromethyl)quinolin-5-yl]piperidin-3-yl]acetamide], the IC50 is less than 1000 nM.

Regarding `C[C@H]1C[C@@H](NC(=O)CN2CC(N)C2)CN(c2ccc(C(F)F)c3ncccc23)C1` [Compound 304, 2-(3-aminoazetidin-1-yl)-N-[(3R,5S)-1-[8-(difluoromethyl)quinolin-5-yl]-5-methylpiperidin-3-yl]acetamide], the IC50 is less than 1000 nM.

`C[C@@H]1CN(c2ccc(C#N)c3ncncc23)C[C@H](C)O1` [Compound 393, cis-5-(2,6-Dimethyl-morpholin-4-yl)-quinazoline-8-carbonitrile]: the IC50 is 1000 to 10000 nM.

Regarding `CC1CC(C(=O)N2CCN(C)CC2)CN(c2ccc(C(F)(F)F)c3ncccc23)C1` (centres unmarked) [Compound 549, (4-Methyl-piperazin-1-yl)-[5-methyl-1-(8-trifluoromethyl-quinolin-5-yl)-piperidin-3-yl]-methanone], the IC50 was 1000 to 10000 nM.

Regarding `CCN(CC)C1CCN(C(=O)C2CCN(c3ccnc4nccnc34)CC2)CC1` [Compound 2, (4-(diethylamino)piperidin-1-yl)(1-(pyrido[2,3-b]pyrazin-8-yl)piperidin-4-yl)methanone], the IC50 lay in the range of 1000 to 10000 nM.

Turning to `C[C@H]1C[C@@H](NC2CCOC2)CN(c2ccnc3nccnc23)C1` (stereo partly drawn) [Compound 139, (3R,5S)-5-methyl-N-(oxolan-3-yl)-1-[pyrido[2,3-b]pyrazin-8-yl]piperidin-3-amine], the IC50 is greater than 10000 nM.

With `C[C@H]1C[C@@H](NC(=O)NCCN(C)C)CN(c2ccc(C(F)(F)F)c3ncccc23)C1` [Compound 477, 1-(2-Dimethylamino-ethyl)-3-[(3R,5S)-5-methyl-1-(8-trifluoromethyl-quinolin-5-yl)-piperidin-3-yl]-urea], the IC50 is less than 1000 nM.

On to `CC(C)(C)NCC(=O)NCC1CCN(c2ccc(C#N)c3ncccc23)CC1` [Compound 413, 2-tert-Butylamino-N-[1-(8-cyano-quinolin-5-yl)-piperidin-4-ylmethyl]-acetamide], for which the IC50 is less than 1000 nM.

For `CN(C)CCNC(=O)N1CCN(c2ccc(C#N)c3nccnc23)CC1` [Compound 463, 4-(8-Cyano-quinoxalin-5-yl)-piperazine-1-carboxylic Acid (2-dimethylamino-ethyl)-amide], the IC50 is less than 1000 nM.

Turning to `C[C@H]1C[C@@H](NC(=O)C(N)C(F)(F)F)CN(c2c(F)cc(C#N)c3nccnc23)C1` (single isomer, unassigned) [Compound 345], the IC50 is greater than 10000 nM.

Take `CNC(=O)[C@@H]1C[C@@H](C)CN(c2ccc(C#N)c3nccnc23)C1` (relative stereo) [Compound 542, trans-1-(8-Cyano-quinoxalin-5-yl)-5-methyl-piperidine-3-carboxylic acid methylamide]: the IC50 fell in the range of 1000 to 10000 nM.

`C[C@H]1C[C@@H](NC(=O)C(N)C(F)(F)F)CN(c2ccc(C(F)(F)F)c3ncccc23)C1` (single isomer, unassigned) [Compound 198]: the IC50 is less than 1000 nM.

For the compound `C[C@@H]1CN(c2ccnc3nccnc23)C[C@H](C(=O)N[C@@H]2CCCNC2)O1` [Compound 64, (2R,6R)-6-methyl-N—((R)-piperidin-3-yl)-4-(pyrido[2,3-b]pyrazin-8-yl)morpholine-2-carboxamide], the IC50 fell in the range of 1000 to 10000 nM.

Take `CNC(=O)CCC(=O)N[C@@H]1C[C@H](C)CN(c2cnc(C)c3ncccc23)C1` [Compound 565, N-Methyl-N′-[(3R,5S)-5-methyl-1-(8-methyl-[1,7]naphthyridin-5-yl)-piperidin-3-yl]-succinamide]: the IC50 lay in the range of 1000 to 10000 nM.

In the case of `Cc1c(F)cc(N2C[C@@H](C)C[C@@H](N)C2)c2cccnc12` [Compound 488, (3R,5S)-1-(7-Fluoro-8-methyl-quinolin-5-yl)-5-methyl-piperidin-3-ylamine hydrochloride], the IC50 was less than 1000 nM.

Take `C[C@H]1C[C@@H](NC(=O)CC2CCN(C)C2)CN(c2ccc(C(F)F)c3ncccc23)C1` (stereo partly drawn) [Compound 307, N-[(3R,5S)-1-[8-(difluoromethyl)quinolin-5-yl]-5-methylpiperidin-3-yl]-2-(1-methylpyrrolidin-3-yl)acetamide]: the IC50 is less than 1000 nM.

As to `C[C@H]1C[C@@H](NC(=O)CC2CCN(C)CC2)CN(c2ccc(C(F)(F)F)c3ncccc23)C1` [Compound 244, N-[(3R,5S)-5-methyl-1-[8-(trifluoromethyl)quinolin-5-yl]piperidin-3-yl]-2-(1-methylpiperidin-4-yl)acetamide], the IC50 is less than 1000 nM.

In the case of `N#Cc1ccc(N2CC(NC(=O)CC3(N)CCOCC3)CC(C(F)(F)F)C2)c2cccnc12` (racemic) [Compound 493, 2-(4-Amino-tetrahydro-pyran-4-yl)-N-[1-(8-cyano-quinolin-5-yl)-5-trifluoromethyl-piperidin-3-yl]-acetamide hydrochloride], the IC50 was less than 1000 nM.
